Results taken from patent publication US7795315B2, “N-(2-amino-phenyl)-amide derivatives” (Hoffman-La Roche Inc., priority 2008, dated 2010).

Experiments:
Assay type in all cases: cell-based
[1] = system: klf2 promoter-luciferase construct in A204 cells; experiment: klf2 reporter gene induction (p21 versus klf2 selectivity); settings: SNDX-275 p21/klf2 ratio defined as 1.0; for p21/klf2 (RP3): relative selectivity compared with SNDX-275: 3 micromolar; for p21/klf2 (RP10): relative selectivity compared with SNDX-275: 10 micromolar
Protocol: (§1) The novel compounds of the present invention were tested for their ability to induce p21 gene expression using a reporter gene assay involving HeLa cells transfected with a p21 promoter-luciferase construct. The p21 promoter contained the Sp1/Sp3 binding site for HDAC but not the upstream p53 binding site. Briefly, the day before transfection, HeLa cells were seeded at 11,000 cells/well in a 96-well culture plate and incubated at 37 degrees Celsius in 5% CO2 overnight. For transfection, the medium was removed and replaced with 100 microliters/well transfection media previously prepared as follows: 5 microliters serum-free DMEM, 0.15 microliters Fugene 6 reagent, 40 ng p21-luc, 10 ng GFP were mixed gently and incubated at room temperature for 30 minutes; then 98 microliters DMEM (with 10% FBS, 1% penicillin and streptomycin) was added to the DNA:Fugene 6 reagent complex and mixed gently. After incubating the cells for 24 hours at 37 degrees Celsius in 5% CO2, fresh media and test compounds were added to the wells and the cells further incubated for 15 hours at 37 degrees Celsius in 5% CO2. Cells were lysed by adding 80 microliters/well of a cell culture lysis reagent (Promega). 50 microliters of each lysate was taken for GFP detection using an excitation wavelength of 486 nm and detection at 527 nm. 100 microliters Luciferase assay reagent (Promega) was then added to every 20 microliters cell lysate for luminometer detection. […] Induction activity for specific representative compounds can be found in Table 4.
The novel compounds of the present invention were tested for their ability to induce klf2 gene expression using a reporter gene assay involving A204 cells transfected with a klf2 promoter-luciferase construct. The klf2 promoter contained the MEF2 binding site for HDAC3/class IIa HDAC complex. Briefly, the day before transfection, A204 cells were seeded at 11,000 cells/well in a 96-well culture plate and incubated at 37 degrees Celsius in 5% CO2 overnight. For transfection, the medium was removed and replaced with 100 microliters/well transfection media previously prepared as follows: 5 microliters serum-free DMEM, 0.15 microliters Fugene 6 reagent, 40 ng klf2-luc, 10 ng GFP were mixed gently and incubated at room temperature for 30 minutes; then 98 microliters DMEM (with 10% FBS, 1% penicillin and streptomycin) was added to the DNA:Fugene 6 reagent complex and mixed gently. After incubating the cells for 24 hours at 37 degrees Celsius in 5% CO2, fresh media and test compounds were added to the wells and the cells further incubated for 15 hours at 37 degrees Celsius in 5% CO2. Finally, 10 ng/ml TNF-α was added and the cells further incubated for 4 hours. Cells were lysed by adding 80 microliters/well of a cell culture lysis reagent (Promega). 50 microliters of each lysate was taken for GFP detection using an excitation wavelength of 486 nm and detection at 527 nm. 100 microliters Luciferase assay reagent (Promega) was then added to every 20 microliters cell lysate for luminometer detection.

[2] = system: p21 promoter-luciferase construct in HeLa cells; experiment: p21 reporter gene induction; settings: 3 micromolar, 15 hours, relative to SNDX-275
Protocol: as §1

[3] = system: HCT-116 colon cancer cells; experiment: Antiproliferative activity, growth inhibition (MTS/WST assay); settings: Homo sapiens, 72 hour growth inhibition, read-out: GI50 HCT116
Protocol: The novel compounds of the present invention were tested for their ability to inhibit growth of various cancer cell lines (HeLa, MCF7, U2OS, HepG2, HL60, HCT-116) using in vitro growth inhibition assays described below.
Cells were seeded in 96-well culture plates (200 microliters/well at different seeding concentrations depending on cell type) and incubated overnight at 37 degrees Celsius in 5% CO2. After adding compound dilutions to the cells (DMSO concentration kept below 0.5%), the cells were incubated at 37 degrees Celsius in 5% CO2 for 72 hours. The effects on proliferation were determined by addition of MTS reagent (Promega) according to the manufacturer's instruction, followed by incubation for 2 hours at 37 degrees Celsius in 5% CO2, and finally recording the absorbance at 490 nm using an ELISA plate reader.
Similar to MTS assay except that the developer is the CCK-8 reagent (Dojindo) and the plate reader is set to 450 nm absorbance.
GI50 values against HCT-116 colon cancer cells for specific representative compounds can be found in Table 4.

SMILES | p21/klf2 (RP3): relative selectivity compared with SNDX-275 [1] | p21/klf2 (RP10): relative selectivity compared with SNDX-275 [1] | p21 (RP3): relative induction potency compared with SNDX-275 [2] | GI50 [3]
Nc1ccccc1NC(=O)/C=C/c1ccc(C(NCCN2CCCCC2)C(=O)Nc2ccc(C(F)(F)F)cc2F)cc1 (stereo not shown) [Example 4-35, (E)-N-(2-Amino-phenyl)-3-{4-[(2-fluoro-4-trifluoromethyl-phenylcarbamoyl)-(2-piperidin-1-yl-ethylamino)-methyl]-phenyl}-acrylamide] | 2.0 | 3.0 | 140% | 1.3 µM
Nc1ccccc1NC(=O)/C=C/c1ccc(C(NCCN2CCSCC2)C(=O)Nc2ccc(C(F)(F)F)cc2)cc1 (stereo not shown) [Example 4-14, (E)-N-(2-Amino-phenyl)-3-{4-[(2-thiomorpholin-4-yl-ethylamino)-(4-trifluoromethyl-phenylcarbamoyl)-methyl]-phenyl}-acrylamide] | 1.2 | 5.1 | 84% | 0.6 µM
C[C@@H]1CN(CCNC(C(=O)Nc2ccc(C(F)(F)F)cc2)c2ccc(/C=C/C(=O)Nc3ccccc3N)cc2)C[C@H](C)O1 (stereo partly drawn) [Example 9-28, (E)-N-(2-Amino-phenyl)-3-{4-[[2-((2R,6S)-2,6-dimethyl-morpholin-4-yl)-ethylamino]-(4-trifluoromethyl-phenylcarbamoyl)-methyl]-phenyl}-acrylamide] | 0.5 | 0.9 | 33% | 1.8 µM
Nc1ccccc1NC(=O)/C=C/c1ccc(C(NCCN2CCOCC2)C(=O)Nc2ccc(C(F)(F)F)c(F)c2)cc1 (stereo not shown) [Example 4-36, (E)-N-(2-Amino-phenyl)-3-{4-[(3-fluoro-4-trifluoromethyl-phenylcarbamoyl)-(2-morpholin-4-yl-ethylamino)-methyl]-phenyl}-acrylamide] | 0.7 | 3.1 | 43% | 2 µM
N#Cc1ccc(NC(=O)C(NCCN2CCOCC2)c2ccc(/C=C/C(=O)Nc3ccccc3N)cc2)cc1 (stereo not shown) [Example 4-3, (E)-N-(2-Amino-phenyl)-3-{4-[(4-cyano-phenylcarbamoyl)-(2-morpholin-4-yl-ethylamino)-methyl]-phenyl}-acrylamide] | 0.8 | 1.2 | 99% | 1 µM
Nc1ccccc1NC(=O)/C=C/c1ccc(C(NCCN2CCOCC2)C(=O)Nc2ccc(C(F)(F)F)cc2)cc1 (stereo not shown) [Example 30, (E)-N-(2-Amino-phenyl)-3-{4-[(2-morpholin-4-yl-ethylamino)-(4-trifluoromethyl-phenylcarbamoyl)-methyl]-phenyl}-acrylamide] | 1.3 | 3.9 | 100% | 0.8 µM
Nc1ccccc1NC(=O)/C=C/c1ccc(C(NCCN2CCCCC2)C(=O)Nc2ccc(Br)cc2)cc1 (stereo not shown) [Example 4-31, (E)-N-(2-Amino-phenyl)-3-{4-[(4-bromo-phenylcarbamoyl)-(2-piperidin-1-yl-ethylamino)-methyl]-phenyl}-acrylamide] | 1.2 | 1.2 | 178% | 0.2 µM
CN(C)CCNC(C(=O)Nc1ccc(Br)cc1)c1ccc(/C=C/C(=O)Nc2ccccc2N)cc1 (stereo not shown) [Example 9-3, (E)-N-(2-Amino-phenyl)-3-{4-[(4-bromo-phenylcarbamoyl)-(2-dimethylamino-ethylamino)-methyl]-phenyl}-acrylamide] | 1.6 | 1.7 | 152% | 0.3 µM
CN(C)CCNC(C(=O)Nc1ccc(C(F)(F)F)cc1)c1ccc(/C=C/C(=O)Nc2ccccc2N)cc1 (stereo not shown) [Example 4-1, (E)-N-(2-Amino-phenyl)-3-{4-[(2-dimethylamino-ethylamino)-(4-trifluoromethyl-phenylcarbamoyl)-methyl]-phenyl}-acrylamide] | 1.4 | 5.5 | 300% | 0.7 µM
CN(C)CCNC(C(=O)Nc1ccc(OC(F)(F)F)cc1)c1ccc(/C=C/C(=O)Nc2ccccc2N)cc1 (stereo not shown) [Example 4-6, (E)-N-(2-Amino-phenyl)-3-{4-[(2-dimethylamino-ethylamino)-(4-trifluoromethoxy-phenylcarbamoyl)-methyl]-phenyl}-acrylamide] | 1.4 | 3.0 | 184% | 0.6 µM
Nc1ccccc1NC(=O)/C=C/c1ccc(C(NCCN2CCOCC2)C(=O)Nc2ccc(C3CC3)cc2)cc1 (stereo not shown) [Example 4-47, (E)-N-(2-Amino-phenyl)-3-{4-[(4-cyclopropyl-phenylcarbamoyl)-(2-morpholin-4-yl-ethylamino)-methyl]-phenyl}-acrylamide] | 1.0 | 1.8 | 79% | 0.9 µM
Nc1ccccc1NC(=O)/C=C/c1ccc(C(NCCCN2CCOCC2)C(=O)Nc2ccc(C3CC3)cc2)cc1 (stereo not shown) [Example 4-41, (E)-N-(2-Amino-phenyl)-3-{4-[(4-cyclopropyl-phenylcarbamoyl)-(3-morpholin-4-yl-propylamino)-methyl]-phenyl}-acrylamide] | 3.5 | 2.1 | 156% | 1.4 µM
Nc1ccccc1NC(=O)/C=C/c1ccc(C(NCCC2CCOCC2)C(=O)Nc2ccc(C(F)(F)F)cc2)cc1 (stereo not shown) [Example 9-18, (E)-N-(2-Amino-phenyl)-3-{4-[[2-(tetrahydro-pyran-4-yl)-ethylamino]-(4-trifluoromethyl-phenylcarbamoyl)-methyl]-phenyl}-acrylamide] | 1.0 | 1.7 | 70% | 1 µM
